“And” between values parts separate entries of the source, which are not always exact repeats. Identical values can stand only once. Toxic doses and inconclusive results are not listed.
System: BDF1 mice, P388 leukemia ip, median survival T/C
Assay: NCI In Vivo Anticancer Drug Screen. Data for tumor model P388 Leukemia (intraperitoneal) in B6D2F1 (BDF1) mice
Details: endpoint: median survival time, higher = longer survival
Summary of the method: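 Steps: implant the tumour, treat one group with compound and another with vehicle, record survival, then divide treated by control.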

[1] = dose: 25.0 mg/kg/injection, schedule: Q01DX009 (ip), vehicle: saline with Tween-80
[2] = dose: 50.0 mg/kg/injection, schedule: Q01DX009 (ip), vehicle: saline with Tween-80
[3] = dose: 100.0 mg/kg/injection, schedule: Q01DX009 (ip), vehicle: saline with Tween-80
[4] = dose: 200.0 mg/kg/injection, schedule: Q01DX009 (ip), vehicle: saline with Tween-80
[5] = dose: 200.0 mg/kg/injection, schedule: Q04DX003 (ip), vehicle: saline with Tween-80
[6] = dose: 400.0 mg/kg/injection, schedule: Q04DX003 (ip), vehicle: saline with Tween-80
[7] = dose: 100.0 mg/kg/injection, schedule: Q04DX002 (ip), vehicle: saline with Tween-80
[8] = dose: 200.0 mg/kg/injection, schedule: Q04DX002 (ip), vehicle: saline with Tween-80
[9] = dose: 400.0 mg/kg/injection, schedule: Q04DX002 (ip), vehicle: saline with Tween-80
[10] = dose: 25.0 mg/kg/injection, schedule: Q01DX009 (ip), vehicle: saline
[11] = dose: 100.0 mg/kg/injection, schedule: Q04DX003 (ip), vehicle: saline
[12] = dose: 100.0 mg/kg/injection, schedule: Q04DX003 (ip), vehicle: saline with Tween-80
[13] = dose: 75.0 mg/kg/injection, schedule: Q01DX009 (ip), vehicle: saline with Tween-80
[14] = dose: 100.0 mg/kg/injection, schedule: Q01DX009 (ip), vehicle: other
[15] = dose: 50.0 mg/kg/injection, schedule: Q04DX003 (ip), vehicle: saline sonified
[16] = dose: 100.0 mg/kg/injection, schedule: Q04DX003 (ip), vehicle: saline sonified
[17] = dose: 200.0 mg/kg/injection, schedule: Q04DX003 (ip), vehicle: saline sonified

Structure (SMILES): CCOC(=O)CCCN(c1[nH]c(C)c(C)c1C#N)S(=O)(=O)c1ccc(C)cc1
- T/C [1]: 109 % of control
- T/C [2]: 100 % of control
- T/C [3]: 113 % of control
- T/C [4]: 104 % of control
- T/C [5]: 87 % of control
- T/C [6]: 95 % of control

Structure (SMILES): COC(=O)C(C#N)=N/C(=C/C=C1/N(C)c2ccccc2C1(C)C)c1ccccc1
- T/C [2]: 102 % of control
- T/C [3]: 96 % of control
- T/C [4]: 97 % of control

Structure (SMILES): C=CCNC(=O)NCC=C
- T/C (dose: 100.0 mg/kg/injection, schedule: Q01DX010 (ip), vehicle: saline): 161 % of control

Structure (SMILES): CN(Cc1ccc2nc(N)nc(N)c2c1)c1ccc(C(=O)NC(CCC(=O)O)C(=O)O)cc1 (stereo unspecified)
- T/C (dose: 0.03 mg/kg/injection, schedule: Q01DX009 (ip), vehicle: saline): 172 % of control
- T/C (dose: 0.05 mg/kg/injection, schedule: Q01DX009 (ip), vehicle: saline): 194 % of control
- T/C (dose: 0.09 mg/kg/injection, schedule: Q01DX009 (ip), vehicle: saline): 200 % of control and 218 % of control
- T/C (dose: 0.15 mg/kg/injection, schedule: Q01DX009 (ip), vehicle: saline): 86 % of control and 190 % of control and 209 % of control
- T/C (dose: 0.22 mg/kg/injection, schedule: Q01DX009 (ip), vehicle: saline): 223 % of control
- T/C (dose: 0.31 mg/kg/injection, schedule: Q01DX009 (ip), vehicle: saline): 110 % of control
- T/C (dose: 1.25 mg/kg/injection, schedule: Q04DX003 (ip), vehicle: saline): 218 % of control
- T/C (dose: 1.65 mg/kg/injection, schedule: Q04DX003 (ip), vehicle: saline): 154 % of control
- T/C (dose: 2.5 mg/kg/injection, schedule: Q04DX003 (ip), vehicle: saline): 268 % of control and 159 % of control and 181 % of control
- T/C (dose: 3.75 mg/kg/injection, schedule: Q04DX003 (ip), vehicle: saline): 86 % of control and 222 % of control
- T/C (dose: 5.0 mg/kg/injection, schedule: Q04DX003 (ip), vehicle: saline): 104 % of control
- T/C (dose: 5.7 micrograms/kg/injection, schedule: Q01DX009 (ip), vehicle: saline): 116 % of control
- T/C (dose: 8.5 micrograms/kg/injection, schedule: Q01DX009 (ip), vehicle: saline): 116 % of control
- T/C (dose: 13.0 micrograms/kg/injection, schedule: Q01DX009 (ip), vehicle: saline): 262 % of control
- T/C (dose: 19.0 micrograms/kg/injection, schedule: Q01DX009 (ip), vehicle: saline): 174 % of control

Structure (SMILES): CCOC(=O)c1c(N)c2cnn(C)c2[nH]c1=O
- T/C [7]: 100 % of control
- T/C [8]: 90 % of control
- T/C [9]: 90 % of control

Structure (SMILES): Cc1ccc(S(=O)(=O)OCCOC(=O)OCCOS(=O)(=O)c2ccc(C)cc2)cc1
- T/C [2]: 99 % of control
- T/C [3]: 100 % of control
- T/C [4]: 99 % of control

Structure (SMILES): Cc1cc2nc3ccc(=[N+](C)C)cc-3sc2cc1N
- T/C [10]: 90 % of control and 113 % of control
- T/C (dose: 25.0 mg/kg/injection, schedule: Q04DX003 (ip), vehicle: saline): 109 % of control and 96 % of control
- T/C (dose: 50.0 mg/kg/injection, schedule: Q01DX009 (ip), vehicle: saline): 100 % of control and 113 % of control
- T/C (dose: 50.0 mg/kg/injection, schedule: Q04DX003 (ip), vehicle: saline): 114 % of control
- T/C [11]: 121 % of control

Structure (SMILES): COc1ccc(C=Nc2ccccc2N=Cc2ccc(OC)c(OC)c2)cc1OC
- T/C [3]: 113 % of control
- T/C [12]: 110 % of control
- T/C [4]: 100 % of control
- T/C [5]: 110 % of control
- T/C (dose: 400.0 mg/kg/injection, schedule: Q01DX009 (ip), vehicle: saline with Tween-80): 100 % of control
- T/C [6]: 100 % of control

Structure (SMILES): Cc1ccc(NCC(O)CN2CCN(CC(O)CNc3ccc(C)cc3)CC2)cc1 (stereo unspecified)
- T/C (dose: 100.0 mg/kg/injection, schedule: Q01DX001 (ip), vehicle: Klucel (hydroxypropylcellulose) (HPC)): 104 % of control
- T/C (dose: 200.0 mg/kg/injection, schedule: Q01DX001 (ip), vehicle: Klucel (hydroxypropylcellulose) (HPC)): 100 % of control
- T/C (dose: 400.0 mg/kg/injection, schedule: Q01DX001 (ip), vehicle: Klucel (hydroxypropylcellulose) (HPC)): 86 % of control

Structure (SMILES): CN=C(NC)c1ccc(NC(=O)c2ccc(C(=O)Nc3ccc(C(=NC)NC)cc3)cc2)cc1
- T/C (dose: 6.25 mg/kg/injection, schedule: Q01DX009 (ip), vehicle: saline with Tween-80): 104 % of control
- T/C (dose: 12.5 mg/kg/injection, schedule: Q01DX009 (ip), vehicle: saline with Tween-80): 100 % of control
- T/C [1]: 86 % of control
- T/C [11]: 90 % of control
- T/C (dose: 200.0 mg/kg/injection, schedule: Q04DX003 (ip), vehicle: saline): 90 % of control

Structure (SMILES): CCCCCCCCCCCCCCCC[N+](C)(C)C(C)c1ccc(OC)cc1 (stereo unspecified)
- T/C (dose: 6.25 mg/kg/injection, schedule: Q04DX003 (ip), vehicle: saline with Tween-80): 123 % of control

Structure (SMILES): O=[N+]([O-])c1ccc(Oc2ccc(-c3ccccc3)cc2)c(Cl)c1
- T/C (dose: 18.75 mg/kg/injection, schedule: Q01DX009 (ip), vehicle: saline with Tween-80): 92 % of control
- T/C [13]: 93 % of control

Structure (SMILES): CCCCCCCC(=O)N/N=C(\CO)[C@]1(O)Cc2c(O)c3c(c(O)c2[C@@H](OC2CC(N)C(O)C(C)O2)C1)C(=O)c1c(OC)cccc1C3=O (stereo partly specified)
- T/C (dose: 0.78 mg/kg/injection, schedule: Q01DX009 (ip), vehicle: water): 114 % of control
- T/C (dose: 1.56 mg/kg/injection, schedule: Q01DX009 (ip), vehicle: water): 183 % of control
- T/C (dose: 3.12 mg/kg/injection, schedule: Q01DX009 (ip), vehicle: water): 106 % of control and 222 % of control
- T/C (dose: 6.25 mg/kg/injection, schedule: Q01DX009 (ip), vehicle: water): 163 % of control and 200 % of control
- T/C (dose: 12.5 mg/kg/injection, schedule: Q01DX009 (ip), vehicle: water): 117 % of control and 204 % of control
- T/C (dose: 25.0 mg/kg/injection, schedule: Q01DX009 (ip), vehicle: water): 104 % of control

Structure (SMILES): CNC(=O)OCc1c(COC(=O)NC)c(-c2ccc(Cl)cc2Cl)n2c1CCC2
- T/C [14]: 158 % of control

Structure (SMILES): Cc1ccc(-c2nc3cc(Cl)ccc3c(=O)o2)cc1
- T/C [2]: 110 % of control
- T/C [13]: 104 % of control
- T/C [3]: 100 % of control
- T/C [12]: 109 % of control
- T/C (dose: 150.0 mg/kg/injection, schedule: Q01DX009 (ip), vehicle: saline with Tween-80): 109 % of control
- T/C [4]: 120 % of control
- T/C [5]: 109 % of control
- T/C (dose: 300.0 mg/kg/injection, schedule: Q01DX009 (ip), vehicle: saline with Tween-80): 95 % of control

Structure (SMILES): C/C(=N/N(C)C)c1ccc([N+](=O)[O-])cc1
- T/C (dose: 6.25 mg/kg/injection, schedule: Q01DX009 (ip), vehicle: saline): 87 % of control
- T/C (dose: 12.5 mg/kg/injection, schedule: Q01DX009 (ip), vehicle: saline): 91 % of control
- T/C [10]: 100 % of control
- T/C (dose: 50.0 mg/kg/injection, schedule: Q01DX009 (ip), vehicle: Klucel (hydroxypropylcellulose) (HPC)): 109 % of control

Structure (SMILES): Cc1ccc(S(=O)(=O)N(C)SCl)cc1 (tested in a mixture with another compound)
- T/C [14]: 121 % of control

Structure (SMILES): CC1(C)CC(=O)C=C(NC2CCCCC2)C1
- T/C [15]: 90 % of control
- T/C [16]: 109 % of control
- T/C [17]: 100 % of control

Structure (SMILES): COC1/C=C/OC2(C)Oc3c(C)c(O)c4c(O)c5c(c(O)c4c3C2=O)CN(C)C(=N5)/C(C)=C\C=C\C(C)C(O)C(C)C(O)C(C)C(OC(C)=O)C1C (stereo unspecified)
- T/C [7]: 97 % of control
- T/C [8]: 97 % of control
- T/C [9]: 116 % of control

Structure (SMILES): Cc1ccccc1OS(=O)(=O)c1ccccc1[N+](=O)[O-]
- T/C (dose: 100.0 mg/kg/injection, schedule: Q01DX001 (ip), vehicle: saline sonified): 100 % of control
- T/C (dose: 200.0 mg/kg/injection, schedule: Q01DX001 (ip), vehicle: saline sonified): 110 % of control
- T/C (dose: 400.0 mg/kg/injection, schedule: Q01DX001 (ip), vehicle: saline sonified): 105 % of control

Structure (SMILES): O=C1C=Cc2cccc3cccc1c23
- T/C [15]: 95 % of control
- T/C [16]: 95 % of control
- T/C [17]: 91 % of control

Structure (SMILES): Cc1c(N=Cc2ccccc2)c(=O)n(-c2ccccc2)n1C
- T/C (dose: 100.0 mg/kg/injection, schedule: Q01DX009 (ip), vehicle: gum acacia): 110 % of control
- T/C (dose: 100.0 mg/kg/injection, schedule: Q04DX003 (ip), vehicle: gum acacia): 88 % of control
- T/C (dose: 200.0 mg/kg/injection, schedule: Q01DX009 (ip), vehicle: gum acacia): 103 % of control
- T/C (dose: 200.0 mg/kg/injection, schedule: Q04DX003 (ip), vehicle: gum acacia): 100 % of control
- T/C (dose: 400.0 mg/kg/injection, schedule: Q01DX009 (ip), vehicle: gum acacia): 92 % of control
- T/C (dose: 400.0 mg/kg/injection, schedule: Q04DX003 (ip), vehicle: gum acacia): 92 % of control

Source: PubChem BioAssay AID328 (DTP/NCI, 2004)
